Experiments:
[1] = system: genome-length HCV-RNA (O strain of genotype 1b) replication in HuH-7-derived OR6 cells; test: OR6 RL assay; assay type: cell-based, hepatitis C virus; conditions: for EC50: Hepatitis C virus, OR6 assay, HuH-7, HCV strain O, 72 hrs, RL assay
Method: RSc and D7 cells were derived from the cell lines HuH-7 and Li23, respectively, were cultured as described previously, [29]. HuH-7-derived OR6 [13], AH1R [30], and 1B-4R [Ikeda et al., submitted] cells harboring genome-length HCV-RNA and HuH-7-derived polyclonal sOR [31], and RSc-JRN/35B [Ikeda et al., submitted] cells harboring an HCV subgenomic replicon were cultured with medium in the presence of G418 (0.3 mg/ml; Geneticin, Invitrogen, Carlsbad, CA) as described previously. Li23-derived ORL8 [20], ORL11 [20], 1B-4RL [Ikeda et al., submitted], and KAH5RL [Ikeda et al., submitted] cells harboring genome-length HCV-RNA were maintained with medium in the presence of G418 (0.3 mg/ml) as described previously. Li23-derived polyclonal sORL8 and sORL11 cells harboring an HCV replicon, which were established by the transfection of ORN/3-5B/QR,KE,SR RNA into the cured OL8 and OL11 cells, respectively, were also cultured with medium in the presence of G418 (0.3 mg/ml) as described previously. Cured cells, from which the HCV-RNA had been eliminated by IFN treatment, were also maintained with medium in the absence of G418 as described previously. […] Therefore, when HCV-RNA is excluded from the cells or when its level is decreased, the cells are killed in the presence of G418.
RL assay was performed as described previously, [24]. Briefly, the cells were plated onto 24-well plates (2×10^4 cells per well) in triplicate and then treated with each reagent at several concentrations for 72 hrs. After treatment, the cells were subjected to luciferase assay using the RL assay system (Promega, Madison, WI). The experiments were performed at least in triplicate. From the assay results, the 50% effective concentration (EC50) of each reagent was determined.
The SI value of each reagent was determined by dividing the CC50 value by the EC50 value.

[2] = WST-1 cell proliferation assay, AH1R cells; assay type: cell-based; conditions: human
Method: The WST-1 cell proliferation assay was performed as described previously. Briefly, The cells were plated onto 96-well plates (1×10^3 cells per well) in triplicate and then treated with each reagent at several concentrations for 72 hrs. After treatment, the cells were subjected to the WST-1 cell proliferation assay (Takara Bio, Otsu, Japan) according to the manufacturer’s protocol. This assay is based on the enzymatic cleavage of the tetrazolium salt WST-1 to formazan by cellular mitochondrial dehydrogenases present in viable cells. Therefore, there are […] the value of the WST-1 assay becomes zero. The experiments were performed at least in triplicate. From the assay results, the 50% cytotoxic concentration (CC50) of each reagent was determined.

[3] = system: HCV-RNA replication in ORL8 cells; test: Comparative time course RL assay in ORL8 cells; assay type: cell-based, hepatitis C virus
Method: We next performed a time course assay (2 to 72 hrs after treatment) in the case of ORL8 cells treated with N-89 (0.1 µM or 1 µM) or IFN-α (1 IU/ml; corresponding to approximately EC80). ORL8 cells treated with IFN-α (1 IU/ml) and N-89 (1 µM) had almost the same anti-HCV kinetics over the first […] after treatment (upper panel of Fig. 4); however, within the first 12 hrs after treatment N-89-treated ORL8 cells had more rapid anti-HCV kinetics than did the IFN-α-treated cells (lower panel of Fig. 4).
Figure 4 The anti-HCV action of N-89 was faster than that of IFN-α. The ORL8 cells were treated with N-89 or IFN-α, and then RL assays were performed at 2 to 72 hrs after the treatment. The relative value (%) calculated at each time point, when the luciferase activity of non-treated cells at 24 hrs was assigned as 100%, is shown. Data are expressed as the means±standard deviation of triplicate assays. […] To evaluate this possibility, we examined the effect of VE on N-89 at the EC90 level in the ORL8 assay. […] Similar results were obtained by using N-251 (Fig. 5C and D). […] However, an antimalarial drug, artemisinin, was hardly influenced by co-treatment with VE (Fig. 5E). The value (1.9) of artemisinin was almost the same as that (3.5 or 2.5) of IFN-α or the control, respectively (Fig. 5F).

[4] = system: HCV-RNA replication in OR6 cells; test: Combination with IFN-α and/or RBV, OR6 RL assay; assay type: cell-based, hepatitis C virus; conditions: 72 hrs
Excerpt: We examined the anti-HCV activity of N-89 or N-251 in combination with IFN-α using OR6 and ORL8 assay systems. […] However, such an effect was not clear in the OR6 assay (Fig. S4A). […] Therefore, we next examined the combination effect of RBV in the same way as IFN-α using an ORL8 assay. […] Therefore, we further examined the effect of N89 or N-251 in combination with both IFN-α and RBV using an ORL8 assay.
Supplementary file pone.0072519.s004.tif: Figure S4 Anti-HCV effects of N-89 or N-251 in combination with IFN-α and/or RBV on HCV-RNA replication in OR6 cells. […] (A) Effect of N-89 or N-251 in combination with IFN-α on OR6 assay. OR6 cells were treated with N-89 (upper panel) or N-251 (lower panel) in combination with IFN-α for 72 hrs and subjected to RL assay. (B) Effect of N-89 or N-251 in combination with RBV on OR6 assay. OR6 cells were treated with N-89 (upper panel) or N-251 (lower panel) in combination with RBV for 72 hrs and subjected to RL assay. (C) Effect of N-89 or N-251 in combination with IFN-α and RBV on OR6 assay. OR6 cells were treated with N-89 (upper panel) or N-251 (lower panel) in combination with IFN-α and RBV for 72 hrs and subjected to RL assay. (TIF) Click here for additional data file.

Plasmodium falciparum = system: Plasmodium falciparum; set-up: method as in PMID 11428929, PMID 17273878, PMID 12723958; conditions: cited from earlier work
malaria parasites = system: malaria parasites; set-up: method as in PMID 21501696, PMID 21924377; conditions: compared with N-89; cited from earlier work

In the case of `C1CCCCCC2(CCCCC1)OOCCCOO2` [N-89, 1,2,6,7-Tetraoxaspiro[7.11]nonadecane], the “anti-HCV activity (suppression)” value ([1]; 8 µM in OR6 cells, without a decrease in cell viability) is reported as > 99%, the EC50 [1] is reported as 660 nM and the CC50 at 72 h [2] is reported as > 500 nM. The “time after treatment at which RL activity was significantly decreased” value ([3]; 0.1 µM) was 9 h, the “time after treatment at which RL activity was significantly decreased” value ([3]; 1 µM) was 6 h and the “anti-HCV effect in combination with IFN-α” value [4] was “not clear”. For the same compound, the “anti-HCV effect in combination with RBV” value [4] was “additive anti-HCV effect” and the “antimalarial activity in vitro” value (Plasmodium falciparum) was “potent antimalarial activity”.
In the case of `OCCCCCCC1COOC2(CCCCCCCCCCC2)OOC1` [N-251, 6-(1,2,6,7-tetraoxaspiro[7.11]nonadec-4-yl)hexan-1-ol], the EC50 [1] is reported as 690 nM, the CC50 at 72 h [2] is reported as 490 nM and the “anti-HCV effect in combination with IFN-α” value [4] is reported as “not clear”. The “anti-HCV effect in combination with RBV” value [4] was “additive anti-HCV effect” and the “potency against malaria parasites” value (malaria parasites) was “as potent as N-89”.
